Experimental findings from ChEMBL document CHEMBL1158371, “Design, synthesis, and evaluation of biphenyl-4-yl-acrylohydroxamic acid derivatives as histone deacetylase (HDAC) inhibitors” (Eur J Med Chem, 2009) are described below.

As a reminder, the IC50 is the concentration at which inhibition is half-maximal. For orientation: IC80 means the point of the concentration-response curve where the effect stands at 80%. The term inhibition in vivo denotes the drop in the measured response relative to a control, in per cent.

Data set [1] deals with IGROV-1. Put plainly: Antiproliferative activity against human IGROV1 cells after 72 hrs. It is filed as functional, cell-based. Particulars: IGROV-1, 72 h.
The test system of data set [2] is IGROV-1. Put plainly: Induction of apoptosis in human IGROV1 cells at IC80 after 72 hrs by TUNEL assay. It is filed as functional.
Data set [3] deals with IGROV-1. Put plainly: Antiproliferative activity against cisplatin-resistant human IGROV1 cells after 72 hrs. It is filed as functional, cell-based. Particulars: IGROV-1, 72 h.
Data set [4] concerns NCI-H460. The experiment in a line: Antiproliferative activity against human H460 cells after 72 hrs. Type of data set: functional, cell-based. The settings on record: NCI-H460, 72 h.
Data set [5] concerns IGROV-1. Put plainly: Antiproliferative activity against human IGROV1 cells after 72 hrs by cell counting. Particulars: IGROV-1, 72 h.
Data set [6] concerns the target Histone deacetylase 2 (Homo sapiens, UniProt Q92769). Put plainly: Inhibition of HDAC2 in human HeLa cells. It is filed as cell-based.
In data set [7] the test system is NB-4. Put plainly: Antiproliferative activity against human NB4 cells after 72 hrs. It is filed as functional, cell-based. Particulars: NB-4, 72 h.
Data set [8] concerns IGROV-1. The experiment in a line: Cell cycle arrest in cisplatin-resistant human IGROV1 cells assessed as partial accumulation at G2/M phase at IC80 using propidium-iodide staining by flow-cytometry. Type of data set: functional, cell-based.
In data set [9] the test system is HCT-116. Put plainly: Antiproliferative activity against human HCT116 cells after 72 hrs. The settings on record: HCT-116, 72 h. Type of data set: functional, cell-based.
For data set [10], the system named is IGROV-1. The experiment in a line: Cell cycle arrest in cisplatin-resistant human IGROV1 cells assessed as partial accumulation at S phase at IC80 using propidium-iodide staining by flow-cytometry. It is filed as functional, cell-based.
For data set [11], the system named is IGROV-1. Put plainly: Cell cycle arrest in human IGROV1 cells assessed as accumulation at sub-G1 phase at IC80 after 24 hrs using propidium-iodide staining by flow-cytometry. It is filed as functional, cell-based.
For data set [12], the system named is Mus musculus. Put plainly: Toxicity in athymic nude Swiss mouse bearing human IGROV1 cells assessed as body weight loss at 20 mg/kg, po QD administered 5 days a week for 4 weeks. Further details: dose 20 mg/kg, route oral. Particulars: in vivo. It is filed as organism-based, IGROV-1.
Data set [13] concerns IGROV-1. Put plainly: Antitumor activity against human IGROV1 cells athymic nude Swiss mouse assessed as tumor volume inhibition at 20 mg/kg, po QD administered 5 days a week for 4 weeks. Type of data set: functional.

SMILES strings stand for the structures. Activity calls are given as the source filed them. The calls are words filed in the database; no cut-off is given here.

Chain of Histone deacetylase 2 (Q92769 whole entry): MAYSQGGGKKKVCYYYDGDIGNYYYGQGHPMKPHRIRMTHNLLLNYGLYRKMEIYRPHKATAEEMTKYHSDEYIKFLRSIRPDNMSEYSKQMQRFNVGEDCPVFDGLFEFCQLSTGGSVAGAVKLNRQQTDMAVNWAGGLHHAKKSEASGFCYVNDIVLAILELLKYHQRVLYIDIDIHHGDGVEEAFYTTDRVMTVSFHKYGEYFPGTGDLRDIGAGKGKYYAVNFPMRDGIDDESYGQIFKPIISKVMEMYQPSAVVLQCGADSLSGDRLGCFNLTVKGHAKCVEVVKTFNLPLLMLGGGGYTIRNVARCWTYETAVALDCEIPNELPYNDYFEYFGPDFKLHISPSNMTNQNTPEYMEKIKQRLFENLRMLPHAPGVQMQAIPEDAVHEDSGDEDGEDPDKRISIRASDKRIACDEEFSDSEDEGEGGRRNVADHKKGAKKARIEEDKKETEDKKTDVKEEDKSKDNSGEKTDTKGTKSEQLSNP

Turning to `COc1ccc(-c2ccc(/C=C/C=C/C(=O)NO)cc2)cc1`, the IC50 was 570 nM in [1], 2010 nM in [3], above 20000 nM in [4] and above 5000 nM in data set [6]. The same compound displayed an Activity in [2] of 90%. This compound also displayed an IC80 in data set [5] of 10000 nM.
Take `O=C(/C=C/c1ccc(-c2ccc3[nH]ccc3c2)cc1)NO`: the half-maximal inhibitory concentration (IC50) worked out at 22100 nM in [1]; 29300 nM in data set [3]; 6500 nM in data set [7]; 14000 nM in data set [4]; 1200 nM in [6].
In the case of `O=C(/C=C/c1ccc(-c2ccc(O)c(Cl)c2)cc1)NO`, the result in data set [8], in data set [10] and in [11] was Active. The 50% inhibitory concentration (IC50) in [1] was found to be 4100 nM; in [3], 3900 nM; in data set [9], 1460 nM; in [7], 580 nM; in data set [4], 3100 nM; in [6], 460 nM.
In the case of `O=C(/C=C/Oc1ccc(-c2ccccc2)cc1)NO`, the IC50 was determined as 5400 nM in data set [1], 5900 nM in [3] and 3900 nM in data set [9].
As to `O=C(/C=C/C1CCC(c2ccc(O)cc2)CC1)NO` (stereo not drawn), the IC50 is 2500 nM in [1]; 2600 nM in [3]; 370 nM in data set [9]; 900 nM in data set [7]; 2200 nM in data set [4]; 310 nM in [6].
On to `O=C(CCc1ccc(-c2ccc(O)cc2)cc1)NO`, for which the outcome in data set [8], in data set [10] and in data set [11] was Active. In addition, the IC50 in data set [1] came out at 800 nM; in data set [3] it was 950 nM; in data set [9], 260 nM; in [7], 3900 nM; in data set [4] it was 15200 nM; in data set [6] it was 1700 nM. Moreover, the Activity in [2] was found to be 45%. In data set [5], this compound had an IC80 of 10000 nM.
As for `N#Cc1ccc(-c2ccc(/C=C/C(=O)NO)cc2)cc1`, the result in data set [8], in [10] and in data set [11] was Active. In addition, the half-maximal inhibitory concentration (IC50) in data set [1] amounted to 2700 nM; in [3], 3200 nM; in data set [4], 5700 nM; in data set [6], 330 nM. The Activity is recorded as 90% in data set [2] and 0% in data set [12]. This compound also showed an 80% effect concentration (IC80) in data set [5] of 10000 nM. Further, the inhibition in vivo at 20 mg/kg in data set [13] worked out at 37%.
As for `N#Cc1ccc(-c2ccc(/C=C/C=C/C(=O)NO)cc2)cc1`, the IC50 in [1] turned out to be 1050 nM; in data set [3], 3100 nM; in data set [4] it was 3300 nM; in data set [6] it was 1200 nM.
On to `O=C(CCC1CCC(c2ccc(O)cc2)CC1)NO` (stereo not drawn), for which the concentration for half-maximal inhibition (IC50) in data set [1] worked out at 31900 nM; in data set [3] it was 23900 nM; in [9], 4270 nM; in [7] it was 6900 nM; in [4], 9500 nM.
Take `O=C(/C=C/c1ccc(-c2ccncc2)cc1)NO`: the IC50 was 3290 nM in data set [7] and above 5000 nM in data set [6].
In the case of `O=Cc1ccc(-c2ccc(/C=C/C(=O)NO)cc2)cc1`, the concentration for half-maximal inhibition (IC50) was determined as 12100 nM in data set [1] and 20300 nM in [3].
Consider `O=C(/C=C/c1ccc(-c2ccccc2)cc1)NO`, for which the IC50 stood at 3500 nM in [1]; 4000 nM in [3]; 1580 nM in data set [9]; 900 nM in [7]; 5400 nM in data set [4]; 820 nM in data set [6].
Turning to `CN(C)c1ccc(-c2ccc(/C=C/C(=O)NO)cc2)cc1`, the outcome in data set [8], in data set [10] and in data set [11] was Active. Besides, the IC50 in data set [1] is 1100 nM; in data set [3], 3500 nM; in data set [9] it was 700 nM; in [7], 860 nM; in data set [6], above 5000 nM. In data set [2], the Activity is 89%. Further, it took 3000 nM to reach the 80% level in data set [5] (IC80).
For `O=C(/C=C/C=C/c1ccc(-c2ccccc2)cc1)NO`, the result in data set [8], in data set [10] and in data set [11] was Active. In addition, the IC50 in [1] is 1400 nM; in data set [3] it was 2400 nM; in data set [9], 980 nM; in [7], 660 nM; in data set [4] it was 1900 nM; in data set [6], above 5000 nM. In [2], this compound yielded an Activity of 89%. For the same compound, in data set [5], the 80% effect concentration (IC80) came to 3000 nM.
For the compound `O=C(/C=C/c1ccc(-c2ccc(CO)cc2)cc1)NO`, the outcome in [8], in data set [10] and in [11] was Active. Moreover, the IC50 in data set [1] was 8000 nM; in data set [3], 5500 nM; in data set [9], 800 nM; in [7] it was 1810 nM; in data set [4], 3800 nM; in [6] it was 220 nM. The Activity in data set [2] was determined as 90%. The same compound registered a concentration for an effect of 80% (IC80) in [5] of 15000 nM.
On to `O=C(/C=C/c1ccc(-c2cccs2)cc1)NO`, for which the result in data set [8], in [10] and in [11] was Active. In addition, the IC50 in [1] amounted to 2800 nM; in data set [3], 3200 nM; in data set [4] it was 2800 nM; in data set [6], 450 nM. For the same compound, the Activity in data set [2] amounted to 90%. In data set [5], this compound displayed a concentration for an effect of 80% (IC80) of 7000 nM.
For the compound `O=C(/C=C/c1ccc(-c2ccc(Cl)cc2)cc1)NO`, the result in data set [8], in data set [10] and in data set [11] was Active. The IC50 worked out at 610 nM in data set [1]; 1360 nM in [3]; 510 nM in [9]; 760 nM in data set [7]; 1860 nM in data set [6]. In data set [2], this compound came in with an Activity of 77%. The compound further displayed a concentration for an effect of 80% (IC80) in data set [5] of 2000 nM.
As for `O=C(CCCCc1ccc(-c2ccccc2)cc1)NO`, the outcome in data set [8], in [10] and in [11] was Active. Also, the IC50 in data set [1] was determined as 8000 nM; in [3] it was 9100 nM; in data set [9], 2700 nM; in data set [7], 860 nM; in data set [4], 4700 nM; in data set [6], 720 nM. In addition, in data set [2], the Activity is recorded as 65%. This compound also displayed an IC80 in data set [5] of 12000 nM.
`O=C(/C=C/c1cccc(-c2ccc(O)cc2)c1)NO`: the IC50 in [1] was above 10000 nM; in data set [3], above 10000 nM; in data set [9] it was 1640 nM; in data set [7], 2850 nM; in [4], 5600 nM; in data set [6] it was 320 nM.
